The results in this text go back to ChEMBL document CHEMBL1131777, “Analogs of 4-(3-bromo-8-methyl-10-methoxy-6,11-dihydro-5H-benzo[5,6]-cyclo hepta[1,2-b]pyridin-11-yl)-1-(4-pyridinylacetyl)piperidine N-oxide as inhibitors of farnesyl protein transferase” (Bioorg Med Chem Lett, 1999).

The target in experiment [1] is T1, Protein farnesyltransferase (Homo sapiens, UniProt P49354+P49356). Briefly: In vitro inhibition of human Farnesyltransferase. The format is protein-complex assay.
In experiment [2] the target is T1, Protein farnesyltransferase. Briefly: Percent inhibition of human Farnesyltransferase. The format is protein-complex assay. The following applies: concentration not given here.

As to `COc1cc(C)cc2c1C(C1CCN(C(=O)Cc3cc[n+]([O-])cc3)CC1)c1ncc(C3CC3)cc1CC2` (configuration not stated), the 50% inhibitory concentration (IC50) (usually the concentration that gives 50% inhibition) in experiment [1] came out at 200 nM.

For `C=Cc1cnc2c(c1)CCc1cc(C)cc(OC)c1C2C1CCN(C(=O)Cc2cc[n+]([O-])cc2)CC1` (configuration not stated), 59 nM corresponded to half-maximal inhibition in experiment [1] (IC50).

`COc1cc(C)cc2c1[C@@H](C1CCN(C(=O)Cc3cc[n+]([O-])cc3)CC1)c1ncc(Br)cc1CC2` registered a half-inhibitory concentration (IC50) in experiment [1] of 3.6 nM.

`COc1cc(C)cc2c1C(C1CCN(C(=O)Cc3cc[n+]([O-])cc3)CC1)c1ncc(C)cc1CC2` (configuration not stated) showed an IC50 in experiment [1] of 34 nM.

As to `CCc1cnc2c(c1)CCc1cc(C)cc(OC)c1C2C1CCN(C(=O)Cc2cc[n+]([O-])cc2)CC1` (configuration not stated), inhibition in experiment [1] was half-maximal at 74 nM (IC50).

As to `COc1cc(C)cc2c1C(C1CCN(C(=O)Cc3cc[n+]([O-])cc3)CC1)c1ncc(C(C)(C)O)cc1CC2` (configuration not stated), the inhibition – broadly, the drop in the measured response relative to a control, in per cent – in experiment [2] was found to be 26%.

With `COc1cc(C)cc2c1C(C1CCN(C(=O)Cc3cc[n+]([O-])cc3)CC1)c1ncccc1CC2` (configuration not stated), the IC50 in experiment [1] was determined as 140 nM.
